Our source for the IC50 values is publication PMC9324412 (Viruses, 2022).

By IC50 is commonly meant the concentration that gives 50% inhibition.

Assay [1] relates to HIV-1 pNL4-3 A128T IN mutant. Description: Late-stage single replication cycle antiviral assay, A128T IN mutant virus. The assay is classed as cell-based. Conditions: Human immunodeficiency virus 1, TZM-bl, read-out: A128T-IC50 (antiviral activity).
In the next assay the test system is HIV-1 pNL4-3 WT. Nature of the assay: Late-stage single replication cycle antiviral assay, WT virus. The assay is classed as cell-based. The settings on record: Human immunodeficiency virus 1, TZM-bl, read-out: WT-IC50 (antiviral activity).

As to `Cc1nc2ccccc2c(-c2ccc3c(c2)OCCO3)c1C(OC(C)(C)C)C(=O)O` (stereo not drawn) [Compound 2], the half-inhibitory concentration (IC50) in assay [1] came out at 1100 ± 200 nM; with HIV-1 pNL4-3 WT, 700 ± 100 nM.
The matching figures for `Cc1nc2c(Br)cccc2c(-c2ccc3c(c2)OCCO3)c1C(OC(C)(C)C)C(=O)O` (stereo not drawn) [Compound 16ba]: 300 ± 100 nM and 600 ± 100 nM.
In the case of `Cc1nc2ccc(Br)cc2c(-c2ccc3c(c2)OCCO3)c1C(OC(C)(C)C)C(=O)O` (stereo not drawn) [Compound 17], the IC50 was 10200 ± 2500 nM in assay [1] and 300 ± 100 nM in the assay on HIV-1 pNL4-3 WT.
